Results published in publication PMC12798769, “GArNet: A Genetic Algorithm-Based Protein Redesign Approach to Optimize Mutation Combinations Informed by Network Theory” (Journal of Chemical Information and Modeling, 2025).

Columns and labels:
CnTDH [1] = biological target: T1, CnTDH (Cupriavidus necator, UniProt Q0K312, N14C/R31N/A62E/A160N/H177Y/A291K/A310K, form not given); experiment: NADH formation at […] nm, Michaelis-Menten fit; assay type: biochemical; conditions: 0.1 M Gly-KOH pH 10.0; 2.5 mM NAD+; 0.0-40 mM L-threonine
T1 construct: gene H16_B0820; recombinant in E. coli BL21(DE3), His-tag (HisTrap; pET15b NdeI/BamHI for the designed variants), size-exclusion purified

CnTDH [2] = biological target: T2, CnTDH (Cupriavidus necator, UniProt Q0K312, V11I/R67K/G69K/G263D/Q265E/D282Q, form not given); experiment: NADH formation at […] nm, Michaelis-Menten fit; assay type: biochemical; conditions: 0.1 M Gly-KOH pH 10.0; 2.5 mM NAD+; 0.0-40 mM L-threonine
T2 construct: gene H16_B0820; recombinant in E. coli BL21(DE3), His-tag (HisTrap; pET15b NdeI/BamHI for the designed variants), size-exclusion purified

Km (CnTDH [1]): 17.4 ± 1.9 mM
Km (CnTDH [2]): 11.6 ± 1.4 mM
SMILES: C[C@@H](O)[C@H](N)C(=O)O [L-threonine]
